Measurements as given in ChEMBL document CHEMBL3885881, “DrugMatrix”.

Organism: Rattus norvegicus
Assay: DrugMatrix - Regimen: Daily Repeat
Type: toxicity, organism-based, Sprague-Dawley
Design: regimen Daily Repeat, gender Male, age 6-8 weeks
Conditions: in vivo, po, route oral GAVAGE, vehicle .5 % CMC; for TOTAL PROTEIN / ALANINE AMINOTRANSFERASE / ALBUMIN / ALKALINE PHOSPHATASE / ASPARTATE AMINOTRANSFERASE / BLOOD UREA NITROGEN / CARBON DIOXIDE / CHLORIDE / CHOLESTEROL / CREATINE PHOSPHOKINASE / CREATININE / GLUCOSE / LACTATE DEHYDROGENASE / LIPASE / POTASSIUM / SODIUM / TOTAL BILIRUBIN: tissue Plasma; for ABSOLUTE BASOPHIL / ABSOLUTE EOSINOPHIL / ABSOLUTE LYMPHOCYTE / ABSOLUTE MONOCYTE / ABSOLUTE SEGMENTED NEUTROPHIL / BASOPHIL / EOSINOPHIL / ERYTHROCYTE COUNT / HEMATOCRIT / HEMOGLOBIN / LEUKOCYTE COUNT / LYMPHOCYTE / MEAN CORPUSCULAR HEMOGLOBIN / MEAN CORPUSCULAR HEMOGLOBIN CONCENTRATION / MEAN CORPUSCULAR VOLUME / MONOCYTE / NEUTROPHIL / NUCLEATED RED BLOOD CELLS / PLATELET COUNT: tissue Blood
[1] = 150 mg/kg, 120 h, dose level Low, time 5 day
[2] = 2000 mg/kg, 72 h, dose level High, time 3 day
[3] = 2000 mg/kg, 120 h, dose level High, time 5 day

## C[C@@H]1CC[C@H]2[C@@H](C)C(=O)O[C@@H]3O[C@@]4(C)CC[C@@H]1[C@]32OO4 [ARTEMISININ]
150 mg/kg, 72 h, dose level Low, time 3 day
  TOTAL PROTEIN: 6.7 G/DL
[1]
  ABSOLUTE BASOPHIL: 0 CELLS/uL
  ABSOLUTE EOSINOPHIL: 0 CELLS/uL
  ABSOLUTE LYMPHOCYTE: 11615.67 CELLS/uL
  ABSOLUTE MONOCYTE: 298.33 CELLS/uL
  ABSOLUTE SEGMENTED NEUTROPHIL: 986 CELLS/uL
  BASOPHIL: 0%
  EOSINOPHIL: 0%
  ERYTHROCYTE COUNT: 5.22 x10E6/uL
  HEMATOCRIT: 33.07%
  HEMOGLOBIN: 12.77 G/DL
  LEUKOCYTE COUNT: 12.9 x10E3/uL
  LYMPHOCYTE: 90%
  MEAN CORPUSCULAR HEMOGLOBIN: 24.43 pg
  MEAN CORPUSCULAR HEMOGLOBIN CONCENTRATION: 38.63 G/DL
  MEAN CORPUSCULAR VOLUME: 63.33 fL
  MONOCYTE: 2.33%
  NEUTROPHIL: 7.67%
  NUCLEATED RED BLOOD CELLS: 0 /100WBC
  PLATELET COUNT: 1315 x10E3/uL
  ALANINE AMINOTRANSFERASE: 48.67 u/L
  ALBUMIN: 3.93 G/DL
  ALKALINE PHOSPHATASE: 408.33 u/L
  ASPARTATE AMINOTRANSFERASE: 87.67 u/L
  BLOOD UREA NITROGEN: 18 mg/dL
  CARBON DIOXIDE: 27 mmol/L
  CHLORIDE: 101 MEQ/L
  CHOLESTEROL: 71.67 mg/dL
  CREATINE PHOSPHOKINASE: 464 u/L
  CREATININE: 0.19 mg/dL
  GLUCOSE: 139.33 mg/dL
  LACTATE DEHYDROGENASE: 476 u/L
  LIPASE: 10 u/L
  POTASSIUM: 6.65 MEQ/L
  SODIUM: 141.93 MEQ/L
  TOTAL BILIRUBIN: 0.2 mg/dL
  TOTAL PROTEIN: 5.93 G/DL
[2]
  ABSOLUTE BASOPHIL: 0 CELLS/uL
  ABSOLUTE EOSINOPHIL: 274 CELLS/uL
  ABSOLUTE LYMPHOCYTE: 15228 CELLS/uL
  ABSOLUTE MONOCYTE: 318.67 CELLS/uL
  BASOPHIL: 0%
  EOSINOPHIL: 1.67%
  ERYTHROCYTE COUNT: 5.42 x10E6/uL
  HEMATOCRIT: 33.43%
  HEMOGLOBIN: 13.03 G/DL
  LEUKOCYTE COUNT: 16.97 x10E3/uL
  LYMPHOCYTE: 89%
  MEAN CORPUSCULAR HEMOGLOBIN: 24.07 pg
  MEAN CORPUSCULAR HEMOGLOBIN CONCENTRATION: 39 G/DL
  MEAN CORPUSCULAR VOLUME: 61.67 fL
  MONOCYTE: 2%
  NEUTROPHIL: 7.33%
  NUCLEATED RED BLOOD CELLS: 0 /100WBC
  PLATELET COUNT: 1460 x10E3/uL
  ALANINE AMINOTRANSFERASE: 59.67 u/L
  ALBUMIN: 4 G/DL
  ALKALINE PHOSPHATASE: 390 u/L
  ASPARTATE AMINOTRANSFERASE: 112.33 u/L
  BLOOD UREA NITROGEN: 19.67 mg/dL
  CARBON DIOXIDE: 23.67 mmol/L
  CHLORIDE: 101.67 MEQ/L
  CHOLESTEROL: 97.67 mg/dL
  CREATINE PHOSPHOKINASE: 581.33 u/L
  CREATININE: 0.25 mg/dL
  GLUCOSE: 144.33 mg/dL
  LACTATE DEHYDROGENASE: 387.67 u/L
  LIPASE: 12.33 u/L
  POTASSIUM: 6.36 MEQ/L
  SODIUM: 142.67 MEQ/L
  TOTAL BILIRUBIN: 0.2 mg/dL
  TOTAL PROTEIN: 6 G/DL
[3]
  ABSOLUTE BASOPHIL: 0 CELLS/uL
  ABSOLUTE EOSINOPHIL: 156.67 CELLS/uL
  ABSOLUTE LYMPHOCYTE: 13145.33 CELLS/uL
  ABSOLUTE MONOCYTE: 96 CELLS/uL
  ABSOLUTE SEGMENTED NEUTROPHIL: 868.67 CELLS/uL
  BASOPHIL: 0%
  EOSINOPHIL: 1%
  ERYTHROCYTE COUNT: 5.52 x10E6/uL
  HEMATOCRIT: 33.57%
  HEMOGLOBIN: 13.27 G/DL
  LEUKOCYTE COUNT: 14.27 x10E3/uL
  LYMPHOCYTE: 92%
  MEAN CORPUSCULAR HEMOGLOBIN: 24.07 pg
  MEAN CORPUSCULAR HEMOGLOBIN CONCENTRATION: 39.53 G/DL
  MEAN CORPUSCULAR VOLUME: 60.87 fL
  MONOCYTE: 0.67%
  NEUTROPHIL: 6.33%
  NUCLEATED RED BLOOD CELLS: 0.33 /100WBC
  PLATELET COUNT: 1230 x10E3/uL
  ALANINE AMINOTRANSFERASE: 52.67 u/L
  ALBUMIN: 4.1 G/DL
  ALKALINE PHOSPHATASE: 299.67 u/L
  ASPARTATE AMINOTRANSFERASE: 83.33 u/L
  BLOOD UREA NITROGEN: 19.33 mg/dL
  CARBON DIOXIDE: 28.67 mmol/L
  CHLORIDE: 104 MEQ/L
  CHOLESTEROL: 75.33 mg/dL
  CREATINE PHOSPHOKINASE: 308.33 u/L
  CREATININE: 0.23 mg/dL
  GLUCOSE: 133 mg/dL
  LACTATE DEHYDROGENASE: 153.67 u/L
  LIPASE: 10.33 u/L
  POTASSIUM: 6.54 MEQ/L
  SODIUM: 147.4 MEQ/L
  TOTAL BILIRUBIN: 0.17 mg/dL
  TOTAL PROTEIN: 6.1 G/DL
